Experimental data published in patent publication US20260240842A1, “METHODS TO PREVENT THERAPY RESISTANCE IN MELANOMA VIA BLOCKING GENOMIC INSTABILITY” (THE REGENTS OF THE UNIVERSITY OF CALIFORNIA, priority 2022, published 2026).

What was measured:
[1] = test system: human BRAF^V600MUT (M229, M249, M395) or NRAS^Q61MUT (M202, M207, M245) melanoma cell lines; assay: Long-term clonogenic growth: emergence of acquired MAPKi-resistant colonies (DTPPs) in parental melanoma cell lines under MAPKi; type: cell-based; details: for efficacy of co-treatment during the second half of the MAPKi treatment course: M229 (day 14-28) and M245 (day 15-30); for suppression of resistance with delayed co-treatment: M229 and M245, 3- to 3.5-week delay in co-treatment, FIGS. 4R and 4S; for sensitivity of M249 parental cell line to resistance suppression: M249, FIG. 4D; for prevention of DTPP formation / suppression of acquired MAPKi resistance: in combination with MAPKi (BRAFi+MEKi or MEKi), parental cell lines, FIG. 4
Experimental: FIGS. 4A-4U. DNA-PKi and/or PARPi co-treatment prevents acquired MAPKi-resistance in human melanoma cell lines. FIGS. 4A to 4O: Long-term clonogenic growth of isogenic parental and acquired MAPKi-resistant BRAF^V600MUT (4A to 4H) or NRAS^Q61MUT (4I to 4O) human melanoma cell lines showing acquired-resistant colonies to BRAFi+MEKi (PLX4032 at 0.5 mM, AZD6244 at 0.5 mM in 4A and 4G; PLX4032 at 0.25 mM, AZD6244 at 0.25 mM in 4D; PLX4032 at 1 mM, AZD6244 at 1 mM in 4B, 4C, 4E, 4F and 4H) or MEKi (trametinib at 0.005 mM in I and 0.01 mM in 4J and 4N; trametinib at 0.1 mM in 4K, 4M and 4O) and their suppression by indicated co-treatments with DNA-PKi (NU7026) and/or PARPi (ABT888) at indicated concentrations. Top, representative cultures; bottom, quantifications over n=4 fields (mean±SD). Data representative of 2 to 4 independent repeats. Seeding densities (cells/well in 6-well dishes) and culture durations (days): (4A) 5,000; 31, (4B) 1,000; 17, (4C) 5,000; 18, (4D) 40,000; 40, (4E) 5,000; 14, (4F) 5,000; 12, (4G) 20,000; 30, (4H) 20,000; 21, (4I) 40,000; 30, (4J) 50,000; 31, (4K) 5,000; 17, (4L) 5,000; 22, (4M) 5,000; 16, (4N) 20.000; 16, and (4O) 5,000; 16. Data representative of 2 to 4 independent repeats. FIGS. 4P and 4Q: Western blot, MTT assay (upper), and clonogenic growth assay (lower) of M245 cells transduced by lentivirus harboring shVector control or shRNAs of PRKDC (4P) or LIG4 (4Q). TUBULIN, loading control. Clonogenic growth with vehicle (14 days, 5,000 cells/well in 6-well dishes) or MEKi (29 days, 50,000 cells/well in 6-well dishes) treatments. MEKi, trametinib at 0.01 μM. Representative results of two independent experiments; quantification of n=4 fields (mean±SD). FIGS. 4R and 4S: As in 4A and 4J, respectively, except DNA-PKi and/or PARPi co-treatments were performed in M229 (4R) and M245 (4S) at a later stage of MAPKi treatment (see timepoint schema). Inhibitor concentrations for M229: BRAFi+MEKi (PLX4032 at 0.5 μM, AZD6244 at 0.5 μM), NU7026 (8 μM), ABT888 (4 μM) and NU7026+ABT888 (4 μM+4 μM). Inhibitor concentrations for M245: MEKi (trametinib at 0.01 μM), NU7026 (5 μM), ABT888 (1 μM) and NU7026+ABT888 (5 μM+1 μM). Left, representative cultures; right, quantifications over n=4 fields (mean±SD). Data representative of 2 independent repeats. FIGS. 4T and 4U: As in 4A and 4J, respectively, except DNA-PKi and/or PARPi co-treatments were performed in M229 (4T) and M245 cells (4U) at the same concentrations in R and S for the entire durations (day 1-28 in 4T; day 1-30 in 4U), the first half (day 1-14 in T; day 1-15 in 4U) or the second half (day 14-28 in 4T: day 15-30 in 4U) of the total treatment course. Top, representative cultures; bottom, quantifications over n=4 fields (mean±SD). Data representative of 2 independent repeats. P values (one-way ANOVA followed by Tukey's multiple comparison test) comparing indicated cultures versus MAPKi-only cultures (4A to 4O and 4R to 4U) or shVector culture (4P and 4Q): *, p<0.05; **, p<0.01: ***, p<0.001.
FIGS. 12A-12F. DNA-PKi and/or PARPi co-treatment prevents acquired MAPKi-resistance in human melanoma cell lines. FIGS. 12A to 12F: Long-term clonogenic growth of BRAF^V600MUT (12A, 12C and 12E) or NRAS^Q61MUT (12B, 12D and 12F) cell lines showing acquired-resistant colonies to BRAFi+MEKi (PLX4032 at 0.5 mM, AZD6244 at 0.5 mM for M229 and M395; PLX4032 at 0.25 mM, AZD6244 at 0.25 mM for M249) or MEKi (trametinib at 0.005 mM for M202 and 0.01 mM for M207 and M245) and their suppression by indicated co-treatments with DNA-PKi (VX984 in 12A and 12B; AZD7648 in 12C and 12D) and/or PARPi (olaparib in 12E and 12F) at indicated concentrations. Top, representative cultures; bottom, quantifications over n=4 fields (mean±SD). Data representative of 2 independent repeats. Seeding densities (cells/well in 6-well dishes) and culture durations (days): M202 (40,000, 30), M207 (20,000, 16), M229 (5,000, 32), M245 (50,000, 31), M249 (40,000, 40), and M395 (20,000, 30). […]

[2] = test system: acquired MAPKi-resistant sub-lines (n=9) isogenic to the human BRAF^V600MUT and NRAS^Q61MUT parental cell lines; assay: Long-term clonogenic growth of acquired MAPKi-resistant sub-lines; type: cell-based; details: in combination with MAPKi, lower range of the concentrations tested
Experimental: FIGS. 4A-4U. DNA-PKi and/or PARPi co-treatment prevents acquired MAPKi-resistance in human melanoma cell lines. FIGS. 4A to 4O: Long-term clonogenic growth of isogenic parental and acquired MAPKi-resistant BRAF^V600MUT (4A to 4H) or NRAS^Q61MUT (4I to 4O) human melanoma cell lines showing acquired-resistant colonies to BRAFi+MEKi (PLX4032 at 0.5 mM, AZD6244 at 0.5 mM in 4A and 4G; PLX4032 at 0.25 mM, AZD6244 at 0.25 mM in 4D; PLX4032 at 1 mM, AZD6244 at 1 mM in 4B, 4C, 4E, 4F and 4H) or MEKi (trametinib at 0.005 mM in I and 0.01 mM in 4J and 4N; trametinib at 0.1 mM in 4K, 4M and 4O) and their suppression by indicated co-treatments with DNA-PKi (NU7026) and/or PARPi (ABT888) at indicated concentrations. Top, representative cultures; bottom, quantifications over n=4 fields (mean±SD). Data representative of 2 to 4 independent repeats. […] Representative results of two independent experiments; quantification of n=4 fields (mean±SD). […] Left, representative cultures; right, quantifications over n=4 fields (mean±SD). […] Top, representative cultures; bottom, quantifications over n=4 fields (mean±SD). […]

SMILES | efficacy of co-treatment during the second half of the MAPKi treatment course ([1]; FIGS. 4T and 4U) | suppression of resistance with delayed co-treatment [1] | sensitivity of M249 parental cell line to resistance suppression [1] | prevention of DTPP formation / suppression of acquired MAPKi resistance [1] | anti-clonogenic activity in acquired MAPKi-resistant sub-lines compared to isogenic parental lines [2] | efficacy of co-treatment during the first half of the MAPKi treatment course ([1]; M229 (day 1-14) and M245 (day 1-15), FIGS. 4T and 4U) | prevention of DTPP formation / suppression of acquired MAPKi resistance ([1]; listed as DNA-PKi)
C[C@]1(c2nc3c(C(N)=O)cccc3[nH]2)CCCN1 [ABT888, veliparib] | completely lost | reduced the suppression of resistance | highly sensitive to resistance suppression | activity in 3 of 6 parental cell lines | no or reduced anti-clonogenic activity |  | 
O=c1cc(N2CCOCC2)oc2c1ccc1ccccc12 [NU7026] | partially remititive | reduced the suppression of resistance | highly sensitive to resistance suppression | synergistically and dose-dependently prevented DTPP formation in all parental cell lines tested | no or reduced anti-clonogenic activity | remititive | generally more effective than PARPi in preventing acquired resistance
